The assay relates to Pseudomonas aeruginosa. As to the kind of experiment: Test for determining the reduction of Pseudomonas aeruginosa according to EN 1276. It counts as cell-based. Particulars: for reduction of Pseudomonas aeruginosa (antibacterial effect): EN 1276. How it is done: The washing agent was used in a test for determining the reduction of Pseudomonas aeruginosa according to EN 1276. The obtained value served as a reference. 0.10 wt. % GLDA or 0.50 wt. % were then added to the washing agent and likewise used in the test for determining the reduction of Pseudomonas aeruginosa according to EN 1276. The all-purpose cleaner was used in a test for determining the reduction of Pseudomonas aeruginosa according to EN 1276. The obtained value served as a reference. 0.10 wt. % GLDA or 0.50 wt. % were then added to the all-purpose cleaner and likewise used in the test for determining the reduction of Pseudomonas aeruginosa according to EN 1276.

With `O=C(O)CC[C@@H](C(=O)O)N(CC(=O)O)CC(=O)O` [Glutamic acid diacetic acid (GLDA), glutamic acid-N,N-diacetic acid], the “reduction of Pseudomonas aeruginosa (antibacterial effect)” value is recorded as 7.65E+00 (Table 1, Example 1, concentration glutamic acid diacetic acid 0.10% (according to the invention)); 6.90E+01 (Table 1, Example 1, concentration glutamic acid diacetic acid 0.50% (according to the invention)); 7.65E+00 (Table 2, Example 2, concentration glutamic acid diacetic acid 0.10% (according to the invention)); 6.90E+01 (Table 2, Example 2, concentration glutamic acid diacetic acid 0.50% (according to the invention)). Moreover, the “antimicrobial / antibacterial effect (in words)” value (substance on its own (GLDA itself; agent exclusively comprising QAC)) is “does not have an antimicrobial effect”.

Source of the values: US10487291B2, “Detergent or cleaning agent having GLDA-enhanced antimicrobial effect” (Henkel AG & Co. KGaA, priority 2016, dated 2019).
